From US5674876A, “.rho.-heteroatom-substituted phenols and uses thereof” (Research Development Foundation, priority 1995, dated 1997)

How the values were obtained:
Type in all cases: cell-based
[1] = tested on: MDA MB 435 (Metastic Human Breast Cancer Cell Line); experiment: Inhibition of DNA synthesis (3H-TdR uptake) / proliferation, MB-435; details: for inhibition at 0.1 µg/mL / inhibition at 1 µg/mL / inhibition at 5 µg/mL / inhibition at 10 µg/mL / inhibition at 20 µg/mL: Homo sapiens, MDA-MB-435, 48 h; for inhibition at 0.1 µg/mL: MB-435, 0.1 μg/mL; for inhibition at 1 µg/mL: MB-435, 1 μg/mL; for inhibition at 10 µg/mL: MB-435, 10 μg/mL
Protocol: (§1) Cells were cultured in the following media: 1) MDA MB 435 cells were cultured in Minimum Essential Media (MEM-HyClone, Logan, Utah) supplemented with 5% heat inactivated fetal bovine serum (HyClone), 2 mM glutamine (Sigma, St. Louis, Mo.), 1 mM sodium pyruvate (Sigma), 1X MEM Non-Essential Amino Acids (Sigma), 2X MEM Vitamins (Sigma), and 100 IU/mL penicillin/100 μg/mL streptomycin (HyClone); 2) MCF-7 McGuire cells were cultured in Minimum Essential Media (MEM-HyClone, Logan, Utah) supplemented with 5% heat inactivated fetal bovine serum (HyClone), 2 mM glutamine (Sigma, St. Louis, Mo.), and 100 IU/mL penicillin/100 μg/mL streptomycin (HyClone); 3) HL-60 cells were cultured in Iscoves Modified Dulbecco's Media (IMDM-HyClone, Logan, Utah) supplemented with 5% heat inactivated fetal bovine serum (HyClone), 2 mM glutamine (Sigma, St. Louis, Mo.), 1 mM sodium pyruvate (Sigma), 1X MEM Non-Essential Amino Acids (Sigma), 2X MEM Vitamins (Sigma), and 100 IU/mL penicillin/100 μg/mL streptomycin (HyClone); 2) MCF-7 McGuire cells were cultured in Minimum Essential Media (MEM-HyClone, Logan, Utah) supplemented with 5% heat inactivated fetal bovine serum (HyClone), 2 mM glutamine (Sigma, St. Louis, Mo.), and 100 IU/mL penicillin/100 μg/mL streptomycin (HyClone); 3) HL-60 cells were cultured in Iscoves Modified Dulbecco's Media (IMDM-HyClone, Logan, Utah) supplemented with 5% heat inactivated fetal bovine serum (HyClone), 2 mM glutamine (Sigma, St. Louis, Mo.), and 100 IU/mL penicillin/100 μg/mL streptomycin (HyClone).
(§2) All compounds were handled as if they were light sensitive. All compounds were initially dissolved in absolute ethanol and subsequently diluted to a final concentration of 0.5% ethanol with the appropriate medium.
(§3) For the bioassay, all cells were used at 2.5×10^5 /mL. Cells were treated with each of the compounds at concentrations of 20, 10, 5, 1, 0.1, and 0.01 μg/mL , and 200 μl of each treatment group were plated in quadruplicate in a 96 well culture plate (Corning, Corning N.Y.). Plates were done in duplicate, one plate to be used for viability testing and the other plate to examine ^3 H-TdR uptake (DNA synthesis).
(§4) Plates were cultured for 48 hours at 37° C., 5% CO2. Eight hours prior to the end of incubation, ^3 H-TdR was added to one of the duplicate plates and incubation continued for 8 hours. The cells were then harvested (trypsinization was required to harvest MDA MB 435 and MCF-7 McGuire). At the end of the incubation, the cells were removed from the wells (of the duplicate plate--no radioisotope added) and viability checked by the Trypan Blue Exclusion method. Percent viability and percent suppression of each treatment group were calculated.
(§5) With respect to the data shown in the Tables below, the data is arranged from greatest percent inhibition of DNA synthesis to lowest. […] "NT" refers to "Not Tested". The cells were cultured for 48 hours, pulsed 8 hours with tritiated thymidine, harvested and counted. MDA MB 435 is the abbreviation for the Metastic Human Breast Cancer Cell Line. MCF-7 McGuire is the abbreviation for the Estrogen Responsive Human Breast Cancer Cell Line and HL-60 is the Human Promyelocytic Leukemia Cell Line.

[2] = tested on: MCF-7 McGuire (Estrogen Responsive Human Breast Cancer Cell Line); experiment: Inhibition of DNA synthesis (3H-TdR uptake) / proliferation, MCF-7; details: for inhibition at 0.1 µg/mL / inhibition at 1 µg/mL / inhibition at 5 µg/mL / inhibition at 10 µg/mL / inhibition at 20 µg/mL: Homo sapiens, MCF7, 48 h; for inhibition at 0.1 µg/mL: MCF-7, 0.1 μg/mL; for inhibition at 1 µg/mL: MCF-7, 1 μg/mL; for inhibition at 10 µg/mL: MCF-7, 10 μg/mL
Protocol: as §1, §2, §3, §4, §5

[3] = tested on: HL-60 (Human Promyelocytic Leukemia Cell Line); experiment: Inhibition of DNA synthesis (3H-TdR uptake) / proliferation, HL-60; details: for inhibition at 0.1 µg/mL / inhibition at 1 µg/mL / inhibition at 5 µg/mL / inhibition at 10 µg/mL / inhibition at 20 µg/mL: Homo sapiens, 48 h; for inhibition at 0.1 µg/mL: HL-60, 0.1 μg/mL; for inhibition at 1 µg/mL: HL-60, 1 μg/mL; for inhibition at 10 µg/mL: HL-60, 10 μg/mL
Protocol: as §1, §2, §3, §4, §5

| SMILES | inhibition at 0.1 µg/mL [1] | inhibition at 1 µg/mL [1] | inhibition at 5 µg/mL ([1]; MB-435, 5 μg/mL) | inhibition at 10 µg/mL [1] | inhibition at 20 µg/mL ([1]; MB-435, 20 μg/mL) | inhibition at 0.1 µg/mL [2] | inhibition at 1 µg/mL [2] | inhibition at 5 µg/mL ([2]; MCF-7, 5 μg/mL) | inhibition at 10 µg/mL [2] | inhibition at 0.1 µg/mL [3] | inhibition at 1 µg/mL [3] | inhibition at 5 µg/mL ([3]; HL-60, 5 μg/mL) | inhibition at 10 µg/mL [3] | inhibition at 20 µg/mL ([3]; HL-60, 20 μg/mL) | inhibition of proliferation (in words) ([1]; MB-435, 10-20 μg/mL) | inhibition at 20 µg/mL ([2]; MCF-7, 20 μg/mL) | inhibition of proliferation (in words) ([2]; MCF-7, 10-20 μg/mL) | inhibition of proliferation (in words) ([3]; HL-60, 10-20 μg/mL) | other results |
| --- | --- | --- | --- | --- | --- | --- | --- | --- | --- | --- | --- | --- | --- | --- | --- | --- | --- | --- | --- |
| Cc1c(O)c(C)c2c(C)cn(C(=O)C(C)(C)C)c2c1C [Compound 27, N-Pivaloyl-5-hydroxy-3,4,6,7-tetramethylindole] | 4% | 15% | 54% | 91% | 97% | 0% | 14% | 57% | 86% | 0% | 12% | 61% | 91% | 97% | – | – | – | – | inhibition of proliferation (in words) ([1]; MB-435, 5 μg/mL): significantly inhibited the proliferation; inhibition of proliferation (in words) ([2]; MCF-7, 5 μg/mL): significantly inhibited the proliferation; inhibition of proliferation (in words) ([3]; HL-60, 5 μg/mL): significantly inhibited the proliferation |
| CC(=O)N1CC(C)(C)c2c(C)c(O)c(C)c(C)c21 [Compound 31b] | 0% | 0% | 0% | 15% | 33% | 0% | 0% | 29% | 18% | 0% | 0% | 6% | 15% | 28% | significantly inhibited the proliferation | 22% | significantly inhibited the proliferation | significantly inhibited the proliferation | – |
| Cc1c(C)c2c(c(C)c1O)CC1(CC1)O2 [Compound 32] | 6% | 6% | 15% | 30% | 43% | 0% | 10% | 5% | 18% | 11% | 5% | 12% | 17% | 26% | significantly inhibited the proliferation | 22% | significantly inhibited the proliferation | significantly inhibited the proliferation | – |
| Cc1cc2c(C)c(O)c(C)c(C)c2o1 [Compound 33, 5-Hydroxy-2,4,6,7-tetramethylbenzofuran] | 1% | 2% | 8% | 16% | 42% | 19% | 0% | 0% | 16% | 0% | 0% | 0% | 7% | 36% | – | 72% | – | – | inhibition of proliferation (in words) ([1]; MB-435, 20 μg/mL): significantly inhibited the proliferation; inhibition of proliferation (in words) ([2]; MCF-7, 20 μg/mL): significantly inhibited the proliferation; inhibition of proliferation (in words) ([3]; HL-60, 20 μg/mL): significantly inhibited the proliferation |
